Data from PMC7689089, “Regorafenib combined with PD1 blockade increases CD8 T-cell infiltration by inducing CXCL10 expression in hepatocellular carcinoma” (Journal for Immunotherapy of Cancer, 2020).

What was measured:
CXCL10 = assay: CXCL10/CXCR3 expression in RIL-175 tumor tissue (RNA-seq, ELISA, RNA-Scope ISH, western blot); format: in vivo, mouse; conditions: regorafenib alone at 10 mg/kg and 20 mg/kg; 6 hours after treatment
Description: The RNA-Scope assay was performed according to manufacturer’s instructions.[32] Briefly, formaldehyde-fixed and paraffin-embedded human and mouse HCC tissue blocks were cut in 5 µm sections, pretreated for 30 min, following digestion and hybridization at 40°C in a HybEZ oven with both dual labeling probes antimurine CXCR3 probe (Mm-CXCR3; 402511-C2) and CXCL10 (Mm-CXCL10; 408921) or human CXCL10 (Hs-CXCL10; 311851), all from Advanced Cell Diagnostics. Counterstaining was performed using hematoxylin for 10 s.
(§1) (A) Changes induced by combination of regorafenib (10 mg/kg) with anti-PD1 antibody in immune-related pathways from the gene set enrichment analysis (GSEA) using curated gene sets in RIL-175 HCC model (see also online supplemental dataset S1 and figure S2E). (B, C) Changes induced by combination of regorafenib (10 mg/kg) with anti-PD1 antibody in STAT3 and STAT1 activity (B), showing an increased ratio of phosphorylated (p)-STAT1/p-STAT3 (normalized to total STAT1 and STAT3, respectively) by western blot analysis of whole RIL-175 HCC tissue (C) (n=4 mice). […] (J, K) Combination therapy increases CXCL10 protein expression in whole RIL-175 tumor tissue 6 hours and 12 hours after in vivo when regorafenib treatment was used at doses of 10 mg/kg (R10) and 20 mg/kg (R20) (n=3) by western blot analysis (J); quantitative data of CXCL10/β-actin ratios are shown in (K). […]

STAT3 = assay: STAT1/STAT3 phosphorylation in RIL-175 HCC tissue; format: in vivo, mouse; conditions: samples of the PK study
Description: as §1, with “mice). (D) Treatment with regorafenib increases CXCL10 expression by RIL-175 HCC cells in vitro after 36 hours, in a dose-dependent manner (n=6). Culture medium alone was used as a negative control (NC).” for “mice).”
Flow cytometry analysis. […] After preparation, cells were suspended in 2ml of PBS with 2% BSA, then counted using a cell counting plate (Kova slide) (if the final concentration of cell exceeded 10^7 cells/ml, a dilution factor was applied). […]

HCA1 cells = assay: CXCL10 secretion by HCA1 cells in vitro; format: cell-based, mouse; conditions: 36hr; compared with increase in RIL-175 cells
RIL-175 orthotopic HCC = assay: Survival, orthotopic RIL-175 HCC in Rag1–/–/C57Bl/6 mice; format: in vivo, mouse; conditions: regorafenib 10 mg/kg; Rag1–/– mice lacking functional T cells
Description: Regorafenib was provided by Bayer and administered by oral gavage daily at a dose of 5, 10 and 20 mg/kg in 34% 1,2-propandiol (Sigma-Aldrich), 34% PEG400 (Sigma-Aldrich), 12% pluronic F68 (Thermo Fischer Scientific, Waltham, Massachusetts, USA), and 20% water, as per manufacturer’s recommendation. Mouse anti-PD1 antibody (clone RMP-014) was purchased from BioXcell (Lebanon, New Hampshire, USA) and Mouse IgG isotype control was purchased from Thermo Fischer Scientific. The STAT3 inhibitor LLL12 was purchased from BioVision (Milpitas, California, USA). Antimouse PD1 antibody or IgG (control) were given intraperitoneally at a dose of 10 mg/kg thrice weekly, as described.[11] Daily gavage of vehicle and intraperitoneal injection of 10 mg/kg of isotype-matched IgG were given as control treatments for anti-PD1 antibody. For the survival studies, moribund status was used as the end point and moribund was defined as symptoms of prolonged distress, >15% of weight loss compared with the starting date, body condition score >2 and tumor size of >24 mm in diameter.
All statistical analyzes were performed using Stata software, V.14.1 (StataCorp, College Station, Texas, USA). […] Quantitative variables were compared using Student’s t-test. […] Statistical analyses in the survival experiments were performed by Cox proportional hazard model and HR and 95% CIs were calculated as well.

CNC(=O)c1cc(Oc2ccc(NC(=O)Nc3ccc(Cl)c(C(F)(F)F)c3)c(F)c2)ccn1 [regorafenib]
CXCL10 protein in whole tumor tissue lysate (western blot) (CXCL10): increased protein levels | Phosphorylated (p)STAT3 levels in HCC tissues (STAT3): inhibited | Level of CXCL10 secreted by HCA1 cells (HCA1 cells): to a lesser extent | Survival (RIL-175 orthotopic HCC): no significant benefit
